The values that follow come from US20140194353A1, “COMPOSITIONS AND METHODS FOR THE TREATMENT OF NERVOUS DISORDERS ASSOCIATED WITH DIABETES” (Joslin Diabetes Center, Inc., priority 2010, published 2014).

The subject of assay [1] is SREBP-2 and its downstream cholesterologenic genes in the hypothalamus. Briefly: qPCR of Srebf2 and cholesterologenic genes in hypothalami of STZ-diabetic mice. It counts as in vivo, mouse. The protocol:
(§1) For STZ-induced diabetes and systemic insulin therapy experiments, 7-week-old C57Bl/6 mice were treated with a single intraperitoneal (i.p.) injection (200 μg/g body weight) of STZ (Sigma). After 2 days, the mice were separated into two groups. Half remained untreated, and the other half were treated with subcutaneous insulin pellets (LinShin, Toronto, Canada) for one week to control blood glucose levels. For phlorizin (PHZ) treatment, 8-week-old C57Bl/6 mice were treated with STZ. PHZ (Sigma) was dissolved in a solution containing 10% ethanol, 15% DMSO, and 75% saline and was injected subcutaneously (0.4 g/kg) twice daily for 10 days starting 8 days after the STZ injection. Control mice were injected with the same volume of vehicle.
For qPCR, RNA was isolated using an RNeasy kit (Qiagen). As a template, 1 μg (for tissue) or 0.2 μg (for glia and neurons) of total RNA was reverse-transcribed in 50 μl using a High Capacity cDNA Reverse Transcription Kit (Applied Biosystems) according to the manufacturer's instructions. […] Analysis of gene expression was done in the ABI PRISM 7000 sequence detector with an initial denaturation at 95° C. for 10 minutes followed by 40 PCR cycles, each cycle consisting of 95° C. for 15 seconds and 60° C. for 1 minute, and SYBR Green fluorescence emissions were monitored after each cycle. For each gene, mRNA expression was calculated relative to Tbp (mouse) or ribosomal 18S (human) expression as an internal control.
To determine whether hyperglycemia or insulin insufficiency was predominantly responsible for the above-observed suppression of cholesterol synthesis pathway in the diabetic mouse brain, we treated the STZ-induced diabetic mice with phlorizin (PHZ), a flavonoid which can decrease blood glucose levels by inhibition of renal glucose transport without restoring insulin secretion using the methods disclosed in Example 1. […] Control mice were injected with the same volume of vehicle. mRNA levels were then assessed by qPCR as disclosed in Example 1. […]
(Real-time PCR tracks product formation cycle by cycle.)

Assay [2] relates to STZ-diabetic mice. Put plainly: Blood glucose levels in STZ-diabetic mice. Type of assay: in vivo, mouse. The protocol:
as §1
To determine whether hyperglycemia or insulin insufficiency was predominantly responsible for the above-observed suppression of cholesterol synthesis pathway in the diabetic mouse brain, we treated the STZ-induced diabetic mice with phlorizin (PHZ), a flavonoid which can decrease blood glucose levels by inhibition of renal glucose transport without restoring insulin secretion using the methods disclosed in Example 1. Additionally, phlorizin (PHZ) treatment was performed using 8-week-old C57Bl/6 mice previously treated with STZ. […] Control mice were injected with the same volume of vehicle. mRNA levels were then assessed by qPCR as disclosed in Example 1. […]

In the next assay the test system is cultured neurons. Briefly: Pharmacological inhibition of insulin signaling pathways, cholesterol synthetic gene expression. It counts as cell-based, mouse.
Assay [3] relates to Pomc, Agrp, Npy expression. Put plainly: qPCR of neuropeptides regulating appetite in hypothalamus after insulin ICV injection. It counts as in vivo, mouse. The settings on record: STZ-diabetic mice. As for the experimental part: (§2) For qPCR, RNA was isolated using an RNeasy kit (Qiagen). As a template, 1 μg (for tissue) or 0.2 μg (for glia and neurons) of total RNA was reverse-transcribed in 50 μl using a High Capacity cDNA Reverse Transcription Kit (Applied Biosystems) according to the manufacturer's instructions. Three microliters of diluted (1/4) reverse transcription reaction was amplified with specific primers (300 nM each) in a 25 μl PCR with a SYBR Green PCR Master Mix (Applied Biosystems). Analysis of gene expression was done in the ABI PRISM 7000 sequence detector with an initial denaturation at 95° C. for 10 minutes followed by 40 PCR cycles, each cycle consisting of 95° C. for 15 seconds and 60° C. for 1 minute, and SYBR Green fluorescence emissions were monitored after each cycle. For each gene, mRNA expression was calculated relative to Tbp (mouse) or ribosomal 18S (human) expression as an internal control.
To assess the effects of insulin, we directly administered insulin into the cerebral ventricles of STZ-induced diabetic mice by 3 injections of insulin into a catheter placed in the lateral ventricle. […] Food intake was measured immediately before the ICV injection. Four hours after the last injection, blood glucose levels were measured, and the hypothalami collected.

In assay [4] the test system is STZ-diabetic mice. Briefly: Food intake after ICV injection in STZ-diabetic mice. It counts as in vivo, mouse. The settings on record: insulin ICV injection. An excerpt:
To assess the effects of insulin, we directly administered insulin into the cerebral ventricles of STZ-induced diabetic mice by 3 injections of insulin into a catheter placed in the lateral ventricle. Briefly, seven-week-old C57Bl/6 mice were placed in a stereotactic device under anesthesia, and a 26-gauge guide cannula (Plastics One Inc., Roanoke, Va.) was inserted into the right lateral cerebral ventricle (1.0 mm posterior, 1.0 mm lateral, and 2.0 mm ventral to the bregma). A dummy stylet cannula was inserted into each cannula until used. After a 1 week recovery, mice received a single i.p. injection of STZ to induce diabetes. Twelve days later, the mice received three ICV injections of insulin (3 mU in 2 μL) or the same volume of PBS (9 AM, 7 PM and 9 AM the following day) through an internal cannula using a Hamilton microsyringe. Food intake was measured immediately before the ICV injection. Four hours after the last injection, blood glucose levels were measured, and the hypothalami collected.

For assay [5], the system named is primary mouse cultured cortical neurons and glia. Briefly: Insulin stimulation of primary cultured cortical neurons and glia, qPCR of cholesterologenic genes. It counts as cell-based. The protocol:
as §2
To dissect the cell type and factors regulating the changes in cholesterol biosynthesis, neuron and glial cells (astrocytes) were isolated and cultured from the cortices of 16-day-old C57Bl/6 mouse embryos and 1-day-old neonates, respectively. Briefly, the cerebral cortex was dissected from 0-1 day old for glia and day 16 embryonic C57Bl/6 mice under aseptic conditions. Large blood vessels were carefully removed under the microscope. […]

Consider `O=C(CCc1ccc(O)cc1)c1c(O)cc(O)cc1O[C@@H]1O[C@H](CO)[C@@H](O)[C@H](O)[C@H]1O` [PHZ, phlorizin], for which the “suppression of SREBP-2 and its downstream genes in the hypothalamus” value in assay [1] (PHZ 0.4 g/kg s.c. twice daily for 10 days, qPCR) is “did not, however, reverse suppression”. Further, the “hyperglycemia (blood glucose)” value in the assay with STZ-diabetic mice [2] (PHZ 0.4 g/kg s.c. twice daily for 10 days) is “efficiently normalized hyperglycemia”.

On to `Cn1cc(C2=C(c3ccc(Cl)cc3Cl)C(=O)NC2=O)c2ccccc21` [SB216763], for which, in the assay with cultured neurons (GSK3 inhibitor treatment, mimicked insulin's effects), the “expression of cholesterol synthetic genes” value is given as “broad increase in expression of cholesterol synthetic genes”.

For `N#CC(=C(/N)Sc1ccccc1N)/C(C#N)=C(\N)Sc1ccccc1N` [U0126], the “insulin's effect on Hmgcr induction” value with cultured neurons (inhibitor given prior to insulin stimulation) is recorded as “partially suppressed”.

On to insulin, for which the “changes in cholesterologenic genes in hypothalamus of diabetic mice” value in assay [1] (subcutaneous insulin pellets for one week, qPCR) was “reversed”. Also, in assay [1] (three ICV injections of insulin (3 mU in 2 μL), 4 hours after last injection), the “suppression of SREBP-2 pathway in the hypothalamus” value is recorded as “almost completely normalized”. Besides, the blood glucose levels result in the assay with STZ-diabetic mice [2] (three ICV injections of insulin (3 mU), 4 hours after last injection) is given as “did not affect blood glucose levels”. Further, in assay [3], the “expression of neuropeptides involved in feeding behavior (Pomc, Agrp, Npy)” value is “partially normalized”. For the same compound, in the assay with STZ-diabetic mice [4], the “hyperphagia induced by STZ diabetes (food intake)” value is given as “partly reversed the hyperphagia”. Moreover, the “stimulation of expression of all cholesterologenic genes” value in assay [5] (insulin 10-100 nM, 6 hours, qPCR) was in the range of 30 to 270%. The “cholesterol synthetic gene expression” value in assay [5] (primary cultured glia and neurons, 18 days in vitro, insulin 6 h) is reported as “induces cholesterol synthetic gene expression”.
